# Test results published in US7829114B2, “Capsules containing aqueous fill compositions stabilized with derivatized cyclodextrin” (CyDex Pharmaceuticals, Inc., priority 2002, dated 2010).
# Where a name gives a salt, the structure may show the parent alone.
# Columns and labels:
# [1] = Clarity / appearance of fill composition; format: physicochemical; details: normal dose of drug in 1 gram
# Excerpt: (§1) Agitation continued until all the SAE-CD dissolved.
# Clarity of the fill compositions herein can be determined by visual inspection; however, other known methods for determining the clarity of a fill composition can be performed. Exemplary other methods include transmittance spectrophotometry at a wavelength of 800 nm.
# [2] = Shell stability on exposure to aqueous fill composition (half-shell integrity test, H.S.I.T.); details: LFB
# Method: A study was conducted to determine whether or not complexation of a drug to the SAE-CD alters the ability of the SAE-CD to stabilize the capsule shell against dissolution, erosion, swelling or degradation caused by water in the fill composition enclosed within the capsule shell. Banner's hydrophilic, HFB, and lipophilic, LFB, air fill size 35 oval gelatin capsules were used in this study, which was performed as described below. […] The SAE-CD was slowly added to the water while it was stirring and on a hot plate. Agitation continued until all the SAE-CD dissolved. The SAE-CD was divided by weighing in equal amounts into nine vials (one for each drug). […] The amount of drug added produced a composition that contained a normal dose of drug in 1 gram. The vials were agitated and heated until a solution was obtained or the active was uniformly suspended. […]
# Method A: Half-Shell integrity Test (H.S.I.T.)
# In a closed container, a portion of a capsule shell is exposed to an aqueous fill composition comprising a known amount of derivatized cyclodextrin, water and optionally one or more other excipients. Observation of changes, or lack thereof, on the exposed portion's size, appearance, shape, dissolution, erosion, degradation, hardness, and/or translucence are recorded periodically over time. A rating scale is used to quantify the overall performance of the capsule portion during the test.
# [3] = as above; format: physicochemical; details: HFB
# Excerpt: as §1
# [4] = as above; format: physicochemical; details: LFC
# Method: (§2) The same tests were performed on gelatin capsules obtained from CARDINAL HEALTH.
# [5] = as above; format: physicochemical; details: HFC
# Method: as §2
# It has been discovered that PEG has a beneficial effect upon the shell-stabilizing property of an aqueous fill composition comprising SAE-CD. FIG. 6a depicts a ternary graph correlating the concentration of SAE-CD, water and PEG in a fill composition to the H.S.I.T. rating of a soft shell capsule exposed to the fill composition. Aqueous fill solutions comprising differing amounts of PEG, SAE-CD and water were prepared. The stability tests were conducted as described below. The HFC soft gelatin capsules described herein were used. For a composition comprising 40% wt. SBE-CD, 40% wt. water and 20% wt. PEG, the shell was stable for greater than 5 days. For a composition comprising 35% wt. SBE-CD, 35% wt. water and 30% wt. PEG, the shell was stable for greater than 5 days. For a composition comprising 18% wt. SBE-CD, 42% wt. water and 40% wt. PEG, the shell was stable for greater than 5 days. Under each of the conditions tested, the control sample excluded SAE-CD, i.e., containing only water and PEG at the indicated concentration, and failed within 24 hours. About the same results were obtained for the HFB (FIG. 6b), LFB (FIG. 7a) and LFC (FIG. 7b) soft gelatin capsules. Increasing the SAE-CD concentration to values higher than those indicated further increases the shelf-life of the shell or provides an HSIT rating of at least 4. Stabilized aqueous fill composition-containing capsule formulations can be achieved with each capsule if the following fill compositions are used.
# [6] = Shell stability toward aqueous fill composition, statements on soft gelatin capsules; format: physicochemical; details: for stability provided to capsules: about ≧60% wt.
# [7] = Water activity measurement; format: physicochemical; details: for Water Activity (approximate values): about 20-25° C.
# Method: Without being held bound to a particular mechanism, it is believed that the increasing the concentration of derivatized cyclodextrin present in the aqueous fill composition results in reduced water activity for the fill composition. The table below provides a summary of water activity versus concentration of cyclodextrin derivatives or some shell-stabilizing materials in water at about 20-25° C., or ambient temperature.
# The values detailed above are approximate and can vary from instrument to instrument. These values were determined according to the procedure described herein on a water activity meter described herein. The numbers can also vary within the standard deviation of a particular instrument. It is also possible for the numbers to vary according to the accuracy and reproducibility of the instrument used as well as the method for calibrating the instrument with solution standards of known water activity.
# Water activity was measured by placing a sample solution in a small, sealed container and determining the equilibrium humidity and temperature in the container. Instruments such as the HygroLab 3 from Rotronic Instrument Corp. , Huntington, N.Y. were used to measure the water activity. The humidity is determined using a thin film capacitive sensor in the headspace of the container. The temperature is determined using a Pt RTD 100 sensor. From these measurements the activity of water (Aw) is calculated by the instrument. The instrument has an accuracy of about ±0.015 Aw and a repeatability of about ±0.005 Aw. Carefully prepared salt-containing stock solutions of known concentration and water activity were used to calibrate the instrument prior to use.
# [8] = 40% wt. cyclodextrin derivative in water
# [9] = 50% wt. cyclodextrin derivative in water
# [10] = 60% wt. cyclodextrin derivative in water
# [11] = 70% wt. cyclodextrin derivative in water
compound,measurement,setting,value
C[C@]12CCC(=O)C=C1CC[C@@H]1[C@@H]2[C@@H](O)C[C@@]2(C)[C@H]1CC[C@]2(O)C(=O)CO [Hydrocortisone],Fill composition appearance,[1]; 60% w/w SAE-CD,clear solution
same,Fill composition appearance,[1]; 70% w/w SAE-CD,clear solution
hydroxypropyl cyclodextrin [HP-CD],Increase in shell size,[2]; [8],>3 × × original
same,Observations,[2]; [8],Deformed
same,Time for failure,[2]; [8],2 days
same,Increase in shell size,[2]; [9],2 × × original
same,Observations,[2]; [9],shape intact
same,Time for failure,[2]; [9],4 days
same,Increase in shell size,[2]; [10],2 × × original
same,Observations,[2]; [10],Shape intact
same,Time for failure,[2]; [10],7 days
same,Increase in shell size,[2]; [11],1.5 × × original
same,Observations,[2]; [11],Shape intact
same,Time for failure,[2]; [11],14 days
same,Increase in shell size,[3]; [8],>3 × × original
same,Observations,[3]; [8],Deformed
same,Time for failure,[3]; [8],2 days
same,Increase in shell size,[3]; [9],2 × × original
same,Observations,[3]; [9],shape intact
same,Time for failure,[3]; [9],4 days
same,Increase in shell size,[3]; [10],2 × × original
same,Observations,[3]; [10],Shape intact
same,Time for failure,[3]; [10],7 days
same,Increase in shell size,[3]; [11],1.5 × × original
same,Observations,[3]; [11],Shape intact
same,Time for failure,[3]; [11],14 days
same,Increase in shell size,[4]; [8],>3 × × original
same,Observations,[4]; [8],Deformed
same,Time for failure,[4]; [8],2 days
same,Increase in shell size,[4]; [9],2 × × original
same,Observations,[4]; [9],Shape intact
same,Time for failure,[4]; [9],4 days
same,Increase in shell size,[4]; [10],2 × × original
same,Observations,[4]; [10],Slight deformity
same,Time for failure,[4]; [10],7 days
same,Increase in shell size,[4]; [11],1.5 × × original
same,Observations,[4]; [11],Shape intact
same,Time for failure,[4]; [11],14 days
same,Increase in shell size,[5]; [8],>3 × × original
same,Observations,[5]; [8],Deformed
same,Time for failure,[5]; [8],2 days
same,Increase in shell size,[5]; [9],2 × × original
same,Observations,[5]; [9],shape intact
same,Time for failure,[5]; [9],4 days
same,Increase in shell size,[5]; [10],2 × × original
same,Observations,[5]; [10],Slight deformity
same,Time for failure,[5]; [10],7 days
same,Increase in shell size,[5]; [11],1.5 × × original
same,Observations,[5]; [11],Shape intact
same,Time for failure,[5]; [11],14 days
same,shelf-life of soft gelatin capsules,[6]; 60% wt. or more based upon total weight of water and HP-CD,at least one week
same,stability provided to capsules,"[6]; LFB and LFC soft gelatin capsules as printed, FIG. 2",at least one week stability
same,stability provided to capsules,"[6]; LFB and LFC soft gelatin capsules, FIG. 1",at least a one-week stability
same,Water Activity (approximate values),[7]; 10 % w/w in water,~0.99
same,Water Activity (approximate values),[7]; 20 % w/w in water,~0.99
same,Water Activity (approximate values),[7]; 30 % w/w in water,~0.98
same,Water Activity (approximate values),[7]; 40 % w/w in water,~0.98
same,Water Activity (approximate values),[7]; 50 % w/w in water,~0.97
same,Water Activity (approximate values),[7]; 60 % w/w in water,~0.94
same,Water Activity (approximate values),[7]; 70 % w/w in water,~0.93
CN[C@H]1CC[C@@H](c2ccc(Cl)c(Cl)c2)c2ccccc21 [Sertraline HCl],Fill composition appearance,[1]; 60% w/w SAE-CD,solution
same,Fill composition appearance,[1]; 70% w/w SAE-CD,clear solution
C[C@]12CC[C@H]3[C@@H](CCC4=CC(=O)CC[C@@]43C)[C@@H]1CC[C@@H]2O [Testosterone],Fill composition appearance,[1]; 60% w/w SAE-CD,clear solution
same,Fill composition appearance,[1]; 70% w/w SAE-CD,clear solution
C[C@]12CCC(=O)C=C1CC[C@@H]1[C@@H]2CC[C@@]2(C)[C@H]1CC[C@]2(C)O [Methyltestosterone],Fill composition appearance,[1]; 60% w/w SAE-CD,clear solution
same,Fill composition appearance,[1]; 70% w/w SAE-CD,clear solution
C(=C\c1ccccc1)/CN1CCN(C(c2ccccc2)c2ccccc2)CC1 [Cinnarizine],Fill composition appearance,[1]; 60% w/w SAE-CD,suspension
same,Fill composition appearance,[1]; 70% w/w SAE-CD,suspension
COc1ccccc1OCCNCC(O)COc1cccc2[nH]c3ccccc3c12 (centres unmarked) [Carvedilol],Fill composition appearance,[1]; 60% w/w SAE-CD,solution
same,Fill composition appearance,[1]; 70% w/w SAE-CD,clear solution
COc1ccc2c(c1)c(CC(=O)O)c(C)n2C(=O)c1ccc(Cl)cc1 [Indomethacin],Fill composition appearance,[1]; 60% w/w SAE-CD,solution
same,Fill composition appearance,[1]; 70% w/w SAE-CD,clear solution
"Dimethylcyclodextrin [DMCD, reference compound]",effect on stability of the shell,"[6]; about 42% wt., maximum achievable concentration, FIG. 2",only slightly increased the stability of the shell
same,ability to stabilize soft gelatin capsules from water in the fill composition,"[6]; at saturation concentration in water, FIG. 4",unable to stabilize
same,water activity,"[7]; 43% wt. in water, the approximate saturation concentration",approximately 0.996
CC(C)(C(=O)O)c1ccc(C(O)CCCN2CCC(C(O)(c3ccccc3)c3ccccc3)CC2)cc1 (centres unmarked) [Fexofenadine HCl],Fill composition appearance,[1]; 60% w/w SAE-CD,solution
same,Fill composition appearance,[1]; 70% w/w SAE-CD,clear solution
